According to patent EP2468718A1, “Cabanillasin, a new antifungal compound, produced by entomopathogenic xenorhabdus cabanillasii” (Nosopharm, priority 2010, dated 2012):
Converted amounts (≈) assume the structure as drawn. “And” between values parts separate entries of the source, which are not always exact repeats. Identical values can stand only once. Like-named read-outs stand apart in the source and are kept apart here.

Legend:
[1] = test system: Aspergilus fumigatus clinical strain; test: Antifungal susceptibility testing, M38-A microdilution method (filamentous fungi); format: cell-based, Aspergillus fumigatus; conditions: for inhibition at 0.09 µg/mL / inhibition at 0.19 µg/mL / inhibition at 0.39 µg/mL / inhibition at 0.78 µg/mL / inhibition at 1.56 µg/mL / inhibition at 3.12 µg/mL / inhibition at 6.25 µg/mL / inhibition at 12.5 µg/mL / inhibition at 25 µg/mL / inhibition at 50 µg/mL: Aspergillus fumigatus, read-out: % of growth inhibition
Description: Cabanillasin activity was tested against different fungal human pathogens: ascomycetes yeasts (Candida albicans ATCC 90029, Candida Glabrata ATCC 90030, Candida krusei ATCC 6258 and Candida lusitaniae CBS 6936), basidiomycetes yeasts (Cryptococcus neoformans clinical strain), ascomycetes filamentous fungi (Aspergilus fumigatus clinical strain, Fusarium oxysporum clinical strain) and zygomycetes filamentous fungi (Rhizopus oryzae environemental strain) by the M38-A microdilution method with RPMI 1640 medium (RPMI 1640, MOPS 160 mM, glucose 18 g/L, pH 7) as recommended in the […]. The NCCLS M27-A2 broth microdilution method (NCCLS) was used when yeasts were tested.
Yeasts and filamentous inoculi were prepared on YPD medium (yeast extract 10 g/L, peptone 10 g/L and glucose 20 g/L) and Malt medium (malt extract 20 g/L) respectively. The densities of inoculi were adjusted by dilution in RPMI 1640 broth to a value ranged from 5.10^2 to 5.10^3 CFU/mL for yeasts isolates and 5.10^3 to 5.10^4 CFU/mL for filamentous fungi. Microdilution trays (96 U-bottom shaped) containing 190 µL fungal inoculum were added with 10 µL Cabanillasin solution (final concentration ranging from 50 to 0.098 mg/L for all fungi). After inoculation of the trays, all microdilution trays were incubated at 35°C in ambient air. The culture absorbance was measured at 600 nm, 24 h and 48 h after the beginning of the experiments for the yeasts and 48 h and 72 h after the beginning of the experiments for filamentous fungi and Cryptococcus neoformans. The activity results correspond to a percentage of growth inhibition ((1-Abs600 nm culture with Cabanillasin)/ Abs600 nm culture without Cabanillasin) x 100.
The IC50 value is the concentration at which inhibition of growth is equal to 50%. MICs for Candida species were determined at 24 h and 48 h and corresponded to 100% of growth inhibition. Amphotericin B was provided as standard (final concentration ranging from 16 to 0.03 mg/L for all fungi). Experiments were done in duplicate.

[2] = test system: Cryptococcus neoformans clinical strain; test: Antifungal susceptibility testing, NCCLS M27-A2 broth microdilution (yeasts); format: cell-based; conditions: for inhibition at 0.09 µg/mL / inhibition at 0.19 µg/mL / inhibition at 0.39 µg/mL / inhibition at 0.78 µg/mL / inhibition at 1.56 µg/mL / inhibition at 3.12 µg/mL / inhibition at 6.25 µg/mL / inhibition at 12.5 µg/mL / inhibition at 25 µg/mL / inhibition at 50 µg/mL: read-out: % of growth inhibition
[3] = test system: Candida lusitaniae CBS 6936; test: as above; format: cell-based; conditions: Clavispora lusitaniae, CBS6936; for inhibition at 0.09 µg/mL / inhibition at 0.19 µg/mL / inhibition at 0.39 µg/mL / inhibition at 0.78 µg/mL / inhibition at 1.56 µg/mL / inhibition at 3.12 µg/mL / inhibition at 6.25 µg/mL / inhibition at 12.5 µg/mL / inhibition at 25 µg/mL / inhibition at 50 µg/mL: read-out: % of growth inhibition
[4] = test system: hTERT HME-1 (Human normal mammary epithelium); test: Cytotoxicity test (MTT); format: cell-based; conditions: 48 h exposure, triplicate
Description: (§1) One hundred microliters of the cell suspension of PC-3 (Human prostatic carcinoma) or hTERT HME-1 (Human normal mammary epithelium) prepared in RPMI + 10% SVF + 1% glutamine were inoculated into 96-well plates. The inoculating cell number was 3500 cells per well for PC-3 and 7500 cells per well for hTERT HME-1. The microplates were incubated at 37°C for 24h with 5% of CO2. After 24 h of culture, the medium was removed by aspiration and 100 µl of RPMI + 10% SVF + 1% glutamine with 8 concentrations of Cabanillasin (from 0.78 µg/mL to 100 µg/mL) were added to each well. Microplates were incubated at 37°C for 48 h with 5% of CO2. After 48h of culture, the medium was removed by aspiration and 100 µL of RPMI + MTT (0.5 mg/mL) were added to each wells. Microplates were inoculated at 37°C during 150 min. Next, all the medium was removed by inverting and tapping the plate and 100 µL of DMSO were added in each plate. The spectrophotometric absorbance was then measured at 550 nm. The Lethal Dose 50 correspond to DL50 = ((50-(Y2-((Y1-Y2)/(X1-X2))*X2))/ ((Y1-Y2)/(X1-X2))). […] Experiments were done in triplicate.

[5] = test system: PC-3 (Human prostatic carcinoma); test: Cytotoxicity test (MTT); format: cell-based; conditions: 48 h exposure, triplicate
Description: as §1

CC(=O)NC(=N)NCCCCNC(=N)NCCCCNC(=N)NCCCCNC(=N)NCCCCN [Cabanillasin]
inhibition at 0.09 µg/mL ([1]; 48 h incubation): 0% | inhibition at 0.09 µg/mL ([1]; 72 h incubation): 0% | inhibition at 0.19 µg/mL ([1]; 48 h incubation): 0% | inhibition at 0.19 µg/mL ([1]; 72 h incubation): 0% | inhibition at 0.39 µg/mL ([1]; 48 h incubation): 0% | inhibition at 0.39 µg/mL ([1]; 72 h incubation): 0% | inhibition at 0.78 µg/mL ([1]; 48 h incubation): 0% | inhibition at 0.78 µg/mL ([1]; 72 h incubation): 0% | inhibition at 1.56 µg/mL ([1]; 48 h incubation): 0% | inhibition at 1.56 µg/mL ([1]; 72 h incubation): 0% | inhibition at 3.12 µg/mL ([1]; 48 h incubation): 0% | inhibition at 3.12 µg/mL ([1]; 72 h incubation): 0% | inhibition at 6.25 µg/mL ([1]; 48 h incubation): 0% | inhibition at 6.25 µg/mL ([1]; 72 h incubation): 0% | inhibition at 12.5 µg/mL ([1]; 48 h incubation): 0% | inhibition at 12.5 µg/mL ([1]; 72 h incubation): 0% | inhibition at 25 µg/mL ([1]; 48 h incubation): 0% | inhibition at 25 µg/mL ([1]; 72 h incubation): 0% | inhibition at 50 µg/mL ([1]; 48 h incubation): 65.2% | inhibition at 50 µg/mL ([1]; 72 h incubation): 0% | activity ([1]; at 48h): weak activity | activity ([1]; at 72 h): no activity | inhibition at 0.09 µg/mL ([2]; 48 h incubation): 0% | inhibition at 0.09 µg/mL ([2]; 72 h incubation): 0% | inhibition at 0.19 µg/mL ([2]; 48 h incubation): 0% | inhibition at 0.19 µg/mL ([2]; 72 h incubation): 0% | inhibition at 0.39 µg/mL ([2]; 48 h incubation): 0% | inhibition at 0.39 µg/mL ([2]; 72 h incubation): 0% | inhibition at 0.78 µg/mL ([2]; 48 h incubation): 0% | inhibition at 0.78 µg/mL ([2]; 72 h incubation): 0% | inhibition at 1.56 µg/mL ([2]; 48 h incubation): 0% | inhibition at 1.56 µg/mL ([2]; 72 h incubation): 0% | inhibition at 3.12 µg/mL ([2]; 48 h incubation): 23.8% | inhibition at 3.12 µg/mL ([2]; 72 h incubation): 0% | inhibition at 6.25 µg/mL ([2]; 48 h incubation): 32% | inhibition at 6.25 µg/mL ([2]; 72 h incubation): 0% | inhibition at 12.5 µg/mL ([2]; 48 h incubation): 47.3% | inhibition at 12.5 µg/mL ([2]; 72 h incubation): 0% | inhibition at 25 µg/mL ([2]; 48 h incubation): 65.3% | inhibition at 25 µg/mL ([2]; 72 h incubation): 0% | inhibition at 50 µg/mL ([2]; 48 h incubation): 63.8% | inhibition at 50 µg/mL ([2]; 72 h incubation): 0% | IC50 ([2]; after 48 h): 25 µg/mL (≈ 48.9 µM) | IC50 ([2]; after 72 h): > 50 µg/mL | inhibition at 0.09 µg/mL ([3]; 24 h incubation): 11.7% | inhibition at 0.09 µg/mL ([3]; 48 h incubation): 0% | inhibition at 0.19 µg/mL ([3]; 24 h incubation): 14.5% | inhibition at 0.19 µg/mL ([3]; 48 h incubation): 0% | inhibition at 0.39 µg/mL ([3]; 24 h incubation): 11.5% | inhibition at 0.39 µg/mL ([3]; 48 h incubation): 0% | inhibition at 0.78 µg/mL ([3]; 24 h incubation): 20.2% | inhibition at 0.78 µg/mL ([3]; 48 h incubation): 0% | inhibition at 1.56 µg/mL ([3]; 24 h incubation): 64.8% | inhibition at 1.56 µg/mL ([3]; 48 h incubation): 0% | inhibition at 3.12 µg/mL ([3]; 24 h incubation): 86.7% | inhibition at 3.12 µg/mL ([3]; 48 h incubation): 57% | inhibition at 6.25 µg/mL ([3]; 24 h incubation): 94.7% | inhibition at 6.25 µg/mL ([3]; 48 h incubation): 74.6% | inhibition at 12.5 µg/mL ([3]; 24 h incubation): 97.7% | inhibition at 12.5 µg/mL ([3]; 48 h incubation): 86.1% | inhibition at 25 µg/mL ([3]; 24 h incubation): 100% | inhibition at 25 µg/mL ([3]; 48 h incubation): 95.9% | inhibition at 50 µg/mL ([3]; 24 h incubation): 100% | inhibition at 50 µg/mL ([3]; 48 h incubation): 100% | IC50 ([3]; 24 h of incubation): 1.56 µg/mL (≈ 3.05 µM) | MIC ([3]; 24 h of incubation, 100% of growth inhibition): 25 µg/mL (≈ 48.9 µM) | LD 50 [4]: 24.46 ± 2.51 µg/mL and 24.46 µg/mL | LD 50 [5]: 46.83 ± 1.55 µg/mL and 46.83 µg/mL
